Drawing on patent US20240124483A1, “Methods for the Treatment of Fibrotic Disease” (SHY Therapeutics, LLC, priority 2021, published 2024), this text covers inhibition for 11 compounds.

Like-named read-outs stand apart in the source and are kept apart here.

One test has as its system ERK1/2 phosphorylation. As to the kind of experiment: Western ERK1/2 Cell-Based Phosphorylation Assay. Conditions: Homo sapiens, PANC-1, 6 hours, EGF 1.5 ng/ml, read-out: % inh of ERK1/2 phosphorylation in PANC-1. How it is done:
Cell lines: Human tumor-derived pancreatic cancer cell line Panc-1 was purchased from American Type Culture Collection and grown in complete DMEM-High Glucose, supplemented with penicillin (100 U/mL), streptomycin (100 μg/mL), and 10% heat-inactivated FBS at 37° C. in a humidified incubator with 5% CO2.
(§1) Method: Cells were plated at 350000 cells/well density in a 12-well plate, allowed 3 hours to adhere to the plate, then starved in the appropriate medium in the presence of 0.5% FBS overnight. The small molecules to be tested were added to the cells in the final concentration of 10 μM in the presence of 0.3% DMSO for 6 hours incubation at 37° C. For IC50 value determination, serial dilutions of compounds were added to cells under the same conditions. Next, cells were stimulated with 1.5 ng/ml EGF for 15 minutes then cells were lysed with lysis buffer containing 1% Triton X-100, EDTA, and Halt™ Protease & Phosphatase Inhibitor Cocktail (Thermo Scientific). Protein concentration was assessed by BCA protein assay (Thermo Scientific). Phosphorylation level of ERK1/2 was determined by western blot.
(§2) Western blot protocol: Equal amounts of protein (15-50 μg) were separated by SDS-PAGE and transferred to nitrocellulose membranes (Invitrogen by Thermo Fisher Scientific). The membrane was stained with Ponceau S Stain (Boston BioProducts) to verify uniform protein loading. Membranes were blocked with 10% milk and phosphorylation levels of ERK1/2 were assessed by incubating overnight at 4° C. with anti-phospho-p44/42 (Thr202/Tyr204) antibody (Cell Signaling) followed by HRP-conjugated secondary antibody (Jackson Immunoresearch, West Grove, PA). Bands were incubated in Amersham ECL Prime Western Blotting Detection Reagent (GE Healthcare) and visualized using the ChemiDoc MP imaging system (Bio-Rad).

The next test deals with AKT phosphorylation. As to the kind of experiment: Western AKT Cell-Based Phosphorylation Assay. Conditions: Homo sapiens, PANC-1, 6 hours, EGF 1.5 ng/ml, read-out: % inh of AKT phosphorylation in PANC-1. How it is done: Human tumor-derived pancreatic cancer cell line Panc-1 was purchased from American Type Culture Collection and grown in complete DMEM-High Glucose supplemented with penicillin (100 U/mL), streptomycin (100 μg/mL), and 10% heat-inactivated FBS at 37° C. in a humidified incubator with 5% CO2.
as §1, with “C.” for “C. For IC50 value determination, serial dilutions of compounds were added to cells under the same conditions.”, “Akt” for “ERK1/2”
as §2, with “Akt” for “ERK1/2”, “anti-phospho-Akt (Ser473)” for “anti-phospho-p44/42 (Thr202/Tyr204)”

A further test addresses KRas Q61H mutant (Homo sapiens (Human), UniProt P01116, Q61H). As to the kind of experiment: Ras GTP Binding Domain Inhibition Assay, KRas Q61H mutant. The settings on record: 20 μM. As to the method: A Ras Superfamily Activity Assay (as disclosed in International Application No. PCT/US2018/038613, filed Jun. 20, 2018, which is incorporated by reference in its entirety) was used as a specific assay to evaluate compounds against the following for the following Ras Superfamily proteins: KRas wild type, KRas Q61H mutant, KRas G12C mutant, KRas G12D mutant, Rac-1, and Rho-A.
Buffer-I: • 25 mM Tris-HCl, pH 7.4 • 27 mM KCl • 137 mM NaCl • 1 mM MgCl2 • 1 mM DTT
Buffer-II: • 50 mM Tris-HCl, pH 7.0 • 1 mM MgCl2 • 1 mM DTT
The small GTPases proteins: KRas wild type. KRas Q61H mutant, KRas G12C mutant, KRas G12D mutants, Rac-1, and Rho-A were expressed as His-tagged proteins. In addition, the Guanosine nucleotide Exchange Factor (GEF) Sos protein (residues 556-1049) was expressed as a His-tagged protein. In cells, the guanine nucleotide exchange factor Sos protein promotes activation of Ras proteins by stimulating an exchange of GDP for GTP. The inclusion of Sos to the Ras GTP binding domain inhibition assay may be considered as an alternative representation of physiological cellular conditions for evaluating the inhibitory activity of some of the tested small molecules.
For the assay, all purified small GTPases proteins were diluted in Buffer-I or Buffer-II to a final concentration of 10-30 μg/mL. 200 μL of each diluted protein was added to a nickel-coated 96-well plate and incubated overnight at 4° C. Then the protein solution was discarded and 200 μL of Buffer-I or Buffer-II was added to each well in the presence of 1% DMSO. Compounds to be tested were added to the protein-coated wells at final concentration of 20 μM, and incubated for 3 hours at room temperature with and without 10-30 μg/mL of Sos added to the final hour of the incubation. When performing IC50 measurements a serial dilution of all tested concentrations was added. Then Cy3-GTP or Cy5-GTP was added to each well to a final concentration of 100 nM. The labeled GTP was incubated for 45 minutes at room temperature. Following GTP incubation, wells were washed 3× in Buffer-I or Buffer-II and 200 μL of Buffer-I or Buffer-II was added to each well. Following washes, the amount of bound labeled-GTP was measured using a SpectraMax M3 (Molecular Devices).

The mark [1] stands for this setting: + SOS, read-out: KRas Q61H mutant + SOS: % inh.
The mark [2] stands for this setting: without SOS, read-out: KRas Q61H mutant: % inh.

Chain of KRas Q61H mutant (P01116 other isoform, or with tags, fused parts or gaps Q61H): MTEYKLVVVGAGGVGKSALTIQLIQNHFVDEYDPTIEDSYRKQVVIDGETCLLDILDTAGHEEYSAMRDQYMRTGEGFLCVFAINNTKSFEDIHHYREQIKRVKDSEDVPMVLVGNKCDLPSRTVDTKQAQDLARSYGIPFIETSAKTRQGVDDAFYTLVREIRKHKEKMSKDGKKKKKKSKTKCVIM

Turning to `COCCO[C@H]1CC[C@@H](Nc2nc(-c3nccn3C)nc3sc(-c4ccn(C(C)C)n4)c(C)c23)C1` (racemic) [Compound 20, rac-6-(1-Isopropyl-1H-pyrazol-3-yl)-N-((1R,3S)-3-(2-methoxyethoxy)cyclopentyl)-5-methyl-2-(1-methyl-1H-imidazol-2-yl)thieno[2,3-d]pyrimidin-4-amine], the inhibition at 10 µM with ERK1/2 phosphorylation was 46 to 75%; in the test with AKT phosphorylation, 26 to 45%. For the same compound, the inhibition at 20 µM fell in the range of 76 to 100% at KRas Q61H mutant (setting [1]) and 46 to 75% on KRas Q61H mutant (setting [2]).
With `Cc1c(-c2ccn(C(C)C)n2)sc2nc(-c3nccn3C)nc(NCC3COCCN3C)c12` (racemic) [Compound 24, rac-6-(1-Isopropyl-1H-pyrazol-3-yl)-5-methyl-2-(1-methyl-1H-imidazol-2-yl)-N-((4-methylmorpholin-3-yl)methyl)thieno[2,3-d]pyrimidin-4-amine], the inhibition at 10 µM in the test on ERK1/2 phosphorylation and in the test with AKT phosphorylation was 0% each time. The inhibition at 20 µM on KRas Q61H mutant (setting [1]) is 76 to 100%; at KRas Q61H mutant (setting [2]) it was 46 to 75%.
For the compound `Cc1c(-c2ccn(C(C)C)n2)sc2nc(-c3nccn3C)nc(NCC3CN(C)CCO3)c12` (racemic) [Compound 25, rac-6-(1-Isopropyl-1H-pyrazol-3-yl)-5-methyl-2-(1-methyl-1H-imidazol-2-yl)-N-((4-methylmorpholin-2-yl)methyl)thieno[2,3-d]pyrimidin-4-amine], the inhibition at 10 µM is 0% in the test on ERK1/2 phosphorylation and 1 to 25% in the test on AKT phosphorylation. Moreover, the inhibition at 20 µM on KRas Q61H mutant (setting [1]) and at KRas Q61H mutant (setting [2]) was 76 to 100% in each case.
Take `Cc1c(-c2ccn(C(C)C)n2)sc2nc(-c3nccn3C)nc(NCC3CCCO3)c12` (racemic) [Compound 26, rac-6-(1-Isopropyl-1H-pyrazol-3-yl)-5-methyl-2-(1-methyl-1H-imidazol-2-yl)-N-((tetrahydrofuran-2-yl)methyl)thieno[2,3-d]pyrimidin-4-amine]: the inhibition at 10 µM in the test on ERK1/2 phosphorylation and in the test with AKT phosphorylation was 0% throughout. In addition, the inhibition at 20 µM at KRas Q61H mutant (setting [1]) and at KRas Q61H mutant (setting [2]) was 76 to 100% each time.
In the case of `COCC1(OC)CCN(c2nc(-c3nccn3C)nc3sc(-c4ccn(C(C)C)n4)c(C)c23)C1` (racemic) [Compound 27, rac-6-(1-Isopropyl-1H-pyrazol-3-yl)-4-(3-methoxy-3-(methoxymethyl)pyrrolidin-1-yl)-5-methyl-2-(1-methyl-1H-imidazol-2-yl)thieno[2,3-d]pyrimidine], the inhibition at 10 µM in the test with ERK1/2 phosphorylation was in the range of 1 to 25%; in the test on AKT phosphorylation it was 26 to 45%. In addition, the values for the inhibition at 20 µM on KRas Q61H mutant (setting [1]) and on KRas Q61H mutant (setting [2]) were 76 to 100% and 46 to 75%, respectively.
On to `COCCn1ccc(-c2sc3nc(-c4nccn4C)nc(NC[C@H]4CC[C@H]4COC)c3c2C)n1` (racemic) [Compound 38, rac-6-(1-(2-Methoxyethyl)-1H-pyrazol-3-yl)-N-(((1S,2R)-2-(methoxymethyl)cyclobutyl)methyl)-5-methyl-2-(1-methyl-1H-imidazol-2-yl)thieno[2,3-d]pyrimidin-4-amine], for which the inhibition at 10 µM is 46 to 75% in the test with ERK1/2 phosphorylation and 0% in the test with AKT phosphorylation. Moreover, the inhibition at 20 µM at KRas Q61H mutant (setting [1]) is 76 to 100%; on KRas Q61H mutant (setting [2]), 46 to 75%.
Take `COCCn1ccc(-c2sc3nc(-c4nccn4C)nc(N[C@@H]4CC[C@H](OC)C4)c3c2C)n1` (racemic) [Compound 39, rac-N-((1R,3S)-3-Methoxycyclopentyl)-6-(1-(2-methoxyethyl)-1H-pyrazol-3-yl)-5-methyl-2-(1-methyl-1H-imidazol-2-yl)thieno[2,3-d]pyrimidin-4-amine]: the inhibition at 10 µM is 1 to 25% with ERK1/2 phosphorylation and 76 to 100% in the test on AKT phosphorylation. Also, the inhibition at 20 µM at KRas Q61H mutant (setting [1]) and on KRas Q61H mutant (setting [2]) was 76 to 100% in each case.
In the case of `COc1cccc(-c2sc3nc(-c4nccn4C)nc(N[C@@H]4CC[C@@H](OC)C4)c3c2-c2ccccc2)c1F` (racemic) [Compound 41, 6-(2-Fluoro-3-methoxyphenyl)-N-((1R,3R)-3-methoxycyclopentyl)-2-(1-methyl-1H-imidazol-2-yl)-5-phenylthieno[2,3-d]pyrimidin-4-amine], the inhibition at 10 µM in the test with ERK1/2 phosphorylation and in the test on AKT phosphorylation was 76 to 100% in each case. Also, the results for the inhibition at 20 µM on KRas Q61H mutant (setting [1]) and on KRas Q61H mutant (setting [2]) were 76 to 100% and 26 to 45%, respectively.
Turning to `COc1cccc(-c2sc3nc(-c4nccn4C)nc(N[C@@H]4CC[C@@H](OC)C4)c3c2C)c1F` (racemic) [Compound 43, rac-6-(2-Fluoro-3-methoxyphenyl)-N-((1R,3R)-3-methoxycyclopentyl)-5-methyl-2-(1-methyl-1H-imidazol-2-yl)thieno[2,3-d]pyrimidin-4-amine], the inhibition at 10 µM with ERK1/2 phosphorylation is 46 to 75%; in the test with AKT phosphorylation it was 0%. Besides, the inhibition at 20 µM is 76 to 100% on KRas Q61H mutant (setting [1]) and 26 to 45% on KRas Q61H mutant (setting [2]).
For `COc1cc(-c2sc3nc(-c4nccn4C)nc(N[C@@H]4CC[C@H](OC)C4)c3c2-c2ccccc2)ccn1` (racemic) [Compound 44, rac-N-((1R,3S)-3-Methoxycyclopentyl)-6-(2-methoxypyridin-4-yl)-2-(1-methyl-1H-imidazol-2-yl)-5-phenylthieno[2,3-d]pyrimidin-4-amine], the inhibition at 10 µM in the test with ERK1/2 phosphorylation lay in the range of 46 to 75%; in the test on AKT phosphorylation, 76 to 100%. For the same compound, the inhibition at 20 µM was in the range of 76 to 100% on KRas Q61H mutant (setting [1]) and 26 to 45% on KRas Q61H mutant (setting [2]).
Take `COc1cc(-c2sc3nc(-c4nccn4C)nc(N[C@@H]4CC[C@@H](OC)C4)c3c2-c2ccccc2)ccn1` (racemic) [Compound 47, N-((1R,3R)-3-Methoxycyclopentyl)-6-(2-methoxypyridin-4-yl)-2-(1-methyl-1H-imidazol-2-yl)-5-phenylthieno[2,3-d]pyrimidin-4-amine]: the inhibition at 10 µM with ERK1/2 phosphorylation and with AKT phosphorylation was 76 to 100% in each case. Moreover, the values for the inhibition at 20 µM at KRas Q61H mutant (setting [1]) and at KRas Q61H mutant (setting [2]) were 76 to 100% and 46 to 75%, respectively.
